The numbers were not newly measured in patent US20120184504A1, “"The Use of a PAR-1 Antagonist in Combination with a P2Y12 ADP Receptor Antagonist for Inhibition of Thrombosis"” (priority 2009, published 2012), which cites them from elsewhere.

Series [1] relates to ischemic events and bleeding in patients. To be noted: two phase 2 trials; cited from earlier work.
For series [2], the system named is CFRs (coronary thrombus formation). To be noted: pigs, cited from earlier work.
Series [3] concerns clinical events and bleeding in patients with acute coronary syndromes. To be noted: cited from earlier work.

Where two headings read alike, the source gives them in different places.

Take `CCOC(=O)N[C@@H]1CC[C@@H]2[C@@H](C1)C[C@H]1C(=O)O[C@H](C)[C@H]1[C@H]2/C=C/c1ccc(-c2cccc(F)c2)cn1` [SCH 530348]: in series [1], the bleeding entry is on record as “without an accompanying increase in bleeding” and the “incidence of ischemic events” value is reported as “strong trends towards reduced incidence of ischemic events”. Turning to `CC(=O)Oc1ccccc1C(=O)O` [aspirin], the “effect on CFRs” value in series [2] (aspirin alone 7 mg/kg) is “reduced, but did not completely abolish”. `COC(=O)[C@H](c1ccccc1Cl)N1CCc2sccc2C1` [clopidogrel]: the “effect on CFRs” value in series [2] (clopidogrel alone 5 mg/kg) is listed as “reduced, but did not completely abolish”. Take `CC(=O)Oc1cc2c(s1)CCN(C(C(=O)C1CC1)c1ccccc1F)C2` (stereo not drawn) [prasugrel]: the “remaining prevalence of clinical events” value in series [3] was 10%. In addition, the “incremental reduction in clinical events” value in series [3] (prasugrel versus clopidogrel) was 19%.
